Test results as given in patent US20160113895A1, “Novel Use of Adapalene in Treating Esophageal Cancer and Gastrointestinal Stromal Tumor” (Biodelight Biotech Inc., priority 2013, published 2016).
pIC50: −log10 of the molar value.

Experiments:
[1] = tested on: four NSCLC cell lines (A549, H1299, H460, HCC827); experiment: 2D cell proliferation assay, summary over the NSCLC cell lines; format: cell-based; settings: Homo sapiens, span over the four NSCLC cell lines
Method: There were eight concentrations used for each drug for determining its IC50. […] Actinomycin D was a chemotherapeutic drug simply used as a quality control for all the experiments.
In the 2D cell proliferation assay, cells were cultured in DMEM containing 10% FCS and Penicillin/Streptomycin. For the assays, cells were seeded in 150 μL medium on a 96-well cell culture plate and incubated at 37° C. overnight before the compounds were added. […] A day after cell seeding, 10 μL of prediluted compounds was added to the cells (1:16 dilution). Treatment of cells with 0.1% DMSO or 1% DMSO (for the two top concentrations of nsl-8) and 1.0E-05 M Staurosporine was served as high control (100% viability) and low control (0% viability), respectively. Measurement of the impact of compounds on cell viability was performed as follows: 5000 cells (A549 and HCC827) or 2500 cells (H1299 and H460) were seeded in the inner wells of 96-well-plates in 150 μL complete medium. Next day, compounds were added to the medium to reach the final concentration and then incubated at 37° C. in 5% or 10% CO2 depending on the medium for 72 h.
(§1) Raw data were converted into percent cell viability relative to high control (solvent 0.1% DMSO or 1% DMSO for the two top concentrations of drug nsl-8) and low control (1.0E-05 M Staurosporine), which were set to 100% and 0%, respectively.

[2] = tested on: H1299; experiment: 2D cell proliferation assay (Alamar Blue), H1299; format: cell-based, human; settings: Homo sapiens, NCI-H1299; 2D, H1299, 72 h; read-out: IC50
Description: (§2) Nsl-8 was subjected to 2D cell proliferation assays using four NSCLC cell lines (A549 (human adenocarcinomic alveolar basal epithelial cells with k-ras gene mutation), H1299 (human non-small cell lung carcinoma cell line with p53 mutation), H460 (human non-small cell lung carcinoma cell line with k-ras gene mutation), and HCC827 (human NSCLC cells with EGFR mutation of deletion from E746 to A750)) and the results were presented in Table 2. There were eight concentrations used for each drug for determining its IC50. […]. Actinomycin D was a chemotherapeutic drug simply used as a quality control for all the experiments.
(§3) In the 2D cell proliferation assay, cells were cultured in DMEM containing 10% FCS and Penicillin/Streptomycin. For the assays, cells were seeded in 150 μL medium on a 96-well cell culture plate and incubated at 37° C. overnight before the compounds were added. Compounds were prepared as predilution which was 16 fold concentrated to the final assay concentration. A day after cell seeding, 10 μL of prediluted compounds was added to the cells (1:16 dilution). Treatment of cells with 0.1% DMSO or 1% DMSO (for the two top concentrations of nsl-8) and 1.0E-05 M Staurosporine was served as high control (100% viability) and low control (0% viability), respectively. Measurement of the impact of compounds on cell viability was performed as follows: 5000 cells (A549 and HCC827) or 2500 cells (H1299 and H460) were seeded in the inner wells of 96-well-plates in 150 μL complete medium. Next day, compounds were added to the medium to reach the final concentration and then incubated at 37° C. in 5% or 10% CO2 depending on the medium for 72 h. Subsequently 10 μL Alamar Blue reagent was added and fluorescence at 590 nm was measured after 5 h incubation at 37° C. in 5% CO2 using a fluorometer.
as §1

[3] = target: T1, recombinant wild type human EGFR kinase domain (Homo sapiens, UniProt P00533); experiment: Radiometric protein kinase enzymatic assay; format: biochemical; settings: text value (FIG. 1)
T1 construct: A recombinant wild type human EGFR kinase domain expressed in Sf9 insect cells; GST; made in house; host or cells: Sf9 insect cells
Description: Except Tarceva® or Erlotinib which was purchased from LC Laboratories, all the screened compounds were purchased from Sigma-Aldrich. A recombinant wild type human EGFR kinase domain expressed in Sf9 insect cells as a GST-fusion protein was used in the enzymatic assay. The recombinant protein was purified by a GSH-affinity column and the purity of the protein was examined by SDS-PAGE/Coomassie staining and the identity was checked by mass spectroscopy. A radiometric protein kinase assay was used for measuring the kinase activity of the EGFR protein kinase. All the assays were performed in 96-well FlashPlates™ from PerkinElmer (Boston, Mass., USA) in a 50 µL, reaction volume. […] The reaction cocktails were incubated at 30° C. for 60 minutes. […] Incorporation of ^33Pi was determined with a microplate scintillation counter. […]
The median value of the counts in column 1 (n=8) of each assay plate was defined as “low control”. This value reflects unspecific binding of radioactivity to the plate in the absence of a protein kinase but in the presence of the substrate. […] The residual activity (in %) for each well of a particular plate was calculated by using the following formula: […]
The residual activities for each concentration and the drug IC50 values were calculated using GraphPad Prism software. […]

[4] = tested on: A549; experiment: 2D cell proliferation assay (Alamar Blue), A549; format: cell-based, human; settings: Homo sapiens; 2D, A549, 72 h; read-out: IC50
Description: as §2, §3, §1

T1 sequence (P00533 712-979 limits assumed): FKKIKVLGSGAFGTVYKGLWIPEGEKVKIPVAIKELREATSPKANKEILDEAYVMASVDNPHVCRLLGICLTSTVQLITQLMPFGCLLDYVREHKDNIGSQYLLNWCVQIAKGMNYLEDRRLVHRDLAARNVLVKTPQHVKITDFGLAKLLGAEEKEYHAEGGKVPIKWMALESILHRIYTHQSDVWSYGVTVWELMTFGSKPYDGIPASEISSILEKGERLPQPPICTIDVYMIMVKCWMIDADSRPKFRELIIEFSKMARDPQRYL

## COc1ccc(-c2ccc3cc(C(=O)O)ccc3c2)cc1C12CC3CC(CC(C3)C1)C2 [nsl-8, 6-[3-(1-adamantyl)-4-methoxyphenyl]-2-naphthalenecarboxylic acid]
[1]
  pIC50: 4.96 to 5.70
[2]
  pIC50: 5.19
[3]
  pIC50: 6.29
[4]
  pIC50: 5.27
